Among the data in a melting point compilation (Tetko et al.; mined from patent text by program, amines drawn as free bases though some values may be those of a salt) are melting point values, retold here.

On to `C=C1N(C)C(=O)OC12CCN(Cc1ccccc1)CC2`, for which the melting point fell in the range of 96 to 97 °C.

With `Cc1oc(-c2ccccc2)nc1COc1ccc(Cn2cc(CCC(=O)O)c(-c3ccccc3)n2)nc1`, the melting point fell in the range of 175 to 176 °C.

Turning to `CN(C(=S)NN)c1ccccc1`, the melting point fell in the range of 121 to 122 °C.

Compound `CCc1nc2c(C)cc(C)nc2n1Cc1ccc(C(c2ccccc2)C(CO)c2nnn[nH]2)cc1` (centres undefined) returned a melting point of 128 to 132 °C.

Turning to `Cc1c(F)cccc1C(=O)Nc1ccc(C(=O)N2Cc3ccccc3Cc3ccccc32)cc1Cl`, the melting point lay within 254 to 256 °C.

In turn, `Cc1ccc(N2C(=O)C(O)=C(C(=O)c3ccc(C(C)C)cc3)C2c2ccc(OC(F)(F)F)cc2)cn1` (centres undefined) came in with a melting point of 214 to 218 °C.

In turn, `O=S(=O)(c1ccc(Cl)cc1)N1CCCC1c1ccc(C(F)(F)F)cc1` (racemic) yielded a melting point of 107 °C.

The compound `Nc1nc2ccccc2c2c1nc(-c1ccccc1)n2CCCCNS(=O)(=O)c1ccc(F)cc1` had a melting point of 214 to 216 °C.

Compound `CCOC(=O)c1nnc(-c2ccc(Cl)cc2)o1` gave a melting point of 117 to 118 °C.

In turn, `Cc1cccc2c1OC[C@H](NC(=O)OC(C)(C)C)C(=O)N2` returned a melting point of 179 °C.

Take `CC(C)(C)OC(=O)c1ccc(Cl)cn1`: the melting point was in the range of 86.3 to 88.3 °C.

As to `CNC1NC(=O)c2ccccc21` (centres undefined), the melting point is 152 °C.

With `CC1(C)CCC(C)(C)c2cc([N+](=O)[O-])c([N+](=O)[O-])cc21`, the melting point is 200 °C.

Consider `CCCCc1ccc(-c2cc(Cl)c(C#N)cn2)cc1`, for which the melting point turned out to be 107 °C.

`CCc1ccc(C(C)=O)c(NC(C#N)c2c(Cl)cccc2Cl)c1` (centres undefined): the melting point came out at 111 °C.

Consider `CC(N)CSc1c[nH]c2ccccc12` (centres undefined), for which the melting point lay in the range of 110 to 112 °C.

With `CCCCCCCCOc1ccc(-c2ccc(C(C)OC(=O)CCCCC)cc2)cc1` (single isomer, unassigned; (-)), the melting point came out at 60.8 °C.

`CC1=C(C(=O)O)CCC(C)(C)C1` gave a melting point of 108 to 110 °C.

`CCOC(=O)c1cnc2c(c1O)CC(C)CC2` (centres undefined): the melting point fell in the range of 228 to 231 °C.

Consider `COCCOC(=O)Nc1cccc(C)c1COc1cccn2c(CO)c(C)nc12`, for which the melting point lay within 121 to 123 °C.

As to `Nc1ccc(C(=O)Nc2ccc(-c3ccc(C(=O)N4CCN5CCC4CC5)o3)cc2)cc1`, the melting point was 151 °C.

`COc1ccc2c(C(F)(F)F)cc(=O)[nH]c2c1NC(C)=O` showed a melting point of 280 °C.

In turn, `COC1=NC2OC(C(O)c3ccc(Cl)cc3Cl)=C(N)C2C=C1` (centres undefined) returned a melting point of 259 to 260 °C.

In the case of `COc1ccc(C(=O)c2cc(Br)ccc2NC(=O)C(F)(F)F)cc1`, the melting point was found to be 149 °C.

The compound `O=CCOc1ccc(Oc2ccccc2)cc1` gave a melting point of 79 to 81 °C.

Take `COc1ccc(CCc2cc3cc(Br)ccc3o2)cc1`: the melting point is 109 to 111 °C.

Take `COCC1CN(c2ccc(C3CCC(=C(C)C)CC3)cc2)C(=O)O1` (racemic): the melting point fell in the range of 89 to 91 °C.

In the case of `Cc1cc2nccn2nc1OCCCS(=O)(=O)N1CCN(C)CC1`, the melting point is 118 to 120 °C.

Compound `Cc1sc(N2CCCCC2)nc1C=Cc1cn(-c2ccccc2)nc1O` registered a melting point of 224 to 226 °C.

The compound `CCn1c(C)nc2cc(CN3CCN(C(c4ccccc4)c4ccccc4)CC3)ccc21` yielded a melting point of 153 °C.

`CC1(C)Oc2ccc(S(=O)(=O)c3ccc(C#N)cc3)cc2C(O)C1Br` (centres undefined) returned a melting point of 157 to 158 °C.

As for `Clc1ccc(C2COCCS2)cc1Cl` (centres undefined), the melting point lay within 65 to 68 °C.

`CCN(CC)CCn1c(=Nc2ccccc2)sc2ncccc2c1=O` had a melting point of 61 to 62 °C.

The compound `CC(=O)NC(=O)C(Cl)c1ccccc1` (centres undefined) yielded a melting point of 101 to 102 °C.

As for `COc1ccc(-c2c([N+](=O)[O-])cnc3ccc(Cl)cc23)cc1OC`, the melting point lay within 188 to 190 °C.

Take `CC(=O)c1ccc2c(=O)c(Br)c(C)oc2c1`: the melting point is 124 °C.

`N#CC1=Cc2ccccc2N(C(N)=O)c2ccccc21` gave a melting point of 143 to 145 °C.

As to `COC(=O)CCc1cnoc1-c1cc(Cl)c(Cl)s1`, the melting point fell in the range of 49 to 50 °C.

Regarding `CCOC(=O)c1nc(-c2ccc(CN(C)C)cc2)[nH]c1-c1ccc(Cl)cc1`, the melting point lay in the range of 117 to 118 °C.

Regarding `CC(C)(C)NCC(O)c1ccc(N)c(F)c1F` (centres undefined), the melting point is 133 to 135 °C.

`FC(F)(F)c1ccc(Nc2nnc(Cc3ccncc3)c3ccccc23)cc1`: the melting point was in the range of 205 to 206 °C.

The compound `CC(=O)N[C@@H](C)COC1CCN(c2nc3cc(OCC4CC4)ccc3o2)CC1` came in with a melting point of 99 to 100 °C.

On to `CC1OC(C)(C)c2cc(-c3ccc(C#N)n3C)ccc2N1C(=O)OCC1c2ccccc2-c2ccccc21` (centres undefined), for which the melting point fell in the range of 63 to 64 °C.

As for `CCOC(=O)c1ccccc1-n1c(C)nc2cnccc21`, the melting point was 125 to 127 °C.

`Cc1nc2c3c(ccn2c1C)C(=O)C(O)C(c1ccccc1)N3` (centres undefined) showed a melting point of 232 to 234 °C.

On to `Cc1ccccc1-c1ccc(C(=O)N2Cc3ccc(C(=O)NCc4cccc(N)c4)n3Cc3ccccc32)cc1C`, for which the melting point lay within 105 to 115 °C.

The compound `COc1ccc(C(=O)Nc2ccccc2)cc1NC(=S)Nc1cccc(C(=O)O)c1` yielded a melting point of 196 to 197 °C.

Take `COc1cc(C=CC(=O)Nc2cnc3c(C)cc(C)cc3c2-c2ccc(F)cc2)cc(OC)c1OC(C)=O`: the melting point was in the range of 260 to 261 °C.

In turn, `O=C(C(=O)c1cccnc1)c1ccccc1` showed a melting point of 56 to 57 °C.

For the compound `COc1ccc(C[C@@H](C(=O)[C@H](Cc2ccc(OC)c(OC)c2)N2C(=O)c3ccccc3C2=O)N2C(=O)c3ccccc3C2=O)cc1OC`, the melting point lay in the range of 126 to 128 °C.

Take `CN(c1ncnc2c1ncn2Cc1ccccc1F)n1cccc1`: the melting point is 147 to 149 °C.

On to `Cc1[nH]c(C#N)c(C)c1-c1nc2ccc(C(=O)c3ccccc3)cc2[nH]1`, for which the melting point was 159 to 163 °C.

In turn, `CNC(=O)c1cc(-c2ccc(OC)cc2)nn(C(C)C)c1=O` yielded a melting point of 154 °C.

In turn, `COc1ccc(N2CCN(CC[C@H]3CC[C@H](NC(N)=O)CC3)CC2)c(Cl)c1Cl` came in with a melting point of 195 to 198 °C.

Regarding `Fc1ccc(Oc2ncccc2COCc2ccccc2)cc1`, the melting point lay within 49 to 50 °C.

Compound `NC1=C(C(=O)c2ccc(Br)s2)C2=C(CCCC2)S1=O` (centres undefined) displayed a melting point of 160 to 163 °C.

Take `Cc1cccc(NC(=O)NC2CC(c3ccccc3F)c3ccccc3N(CC(=O)NC(C)(C)C)C2=O)c1` (centres undefined): the melting point fell in the range of 285 to 300 °C.

As to `CC(C)(O)Cn1c(CONC(=O)C2CC2)nc2c(N)nc3ccccc3c21`, the melting point is 209 to 210 °C.

For `CC(C)(C)c1cc(CCc2ccc(Cl)cc2NC(=O)NC2CCN(Cc3ccccc3)CC2)cc(C(C)(C)C)c1O`, the melting point was 155 to 156 °C.

`OC(CCc1cccnc1)CSc1ccc(C2CCCCC2)cc1` (centres undefined) yielded a melting point of 49 °C.

On to `Cc1cccc(N2C(=O)C(=CN(C)C)c3ccccc32)c1`, for which the melting point was in the range of 105 to 108 °C.

`C=CCc1cc(C=CNC(C)=O)ccc1OCC1CO1` (centres undefined) yielded a melting point of 135 to 136 °C.

Regarding `O=C(Cc1ccncn1)c1ccc(Cl)cc1`, the melting point amounted to 110 °C.

In turn, `O=c1ncccn1Cc1ccc2ccccc2c1` returned a melting point of 136 to 145 °C.

Take `CCc1ccc(Oc2ccc([C@@H]3CCCN4CCS(=O)(=O)N=C34)cc2)cc1`: the melting point lay in the range of 152 to 153 °C.

`ClCC1(CCl)Cc2cccc3cccc1c23` registered a melting point of 212 to 213 °C.

Turning to `CCCCCCCCCCCC1CNc2cc(C(=O)O)ccc21` (racemic), the melting point lay within 107 to 111 °C.

Compound `O=C1C[C@@H]2[C@@H](/C=C/[C@H](O)CCc3ccccc3)[C@H](OC(=O)c3ccc(-c4ccccc4)cc3)C[C@@H]2O1` yielded a melting point of 81 to 83 °C.

`OC1(c2ccc(Br)cc2)CCN(CCCc2noc3cc(F)ccc23)CC1` yielded a melting point of 138 to 145 °C.

On to `CCCONNc1nc(C(=O)c2ccccc2O)nc(C(=O)c2ccccc2O)n1`, for which the melting point was in the range of 258 to 260 °C.

Take `CC(C)Cn1c(=O)n(C)c(=O)c2c(SCCCC#N)n(Cc3cccc4ccccc34)cc21`: the melting point lay in the range of 127 to 128 °C.

`COC(=O)C(Br)Cc1ccc(OC)c(C(=O)NCc2ccc(C(F)(F)F)cc2)c1` (centres undefined) gave a melting point of 110 to 111 °C.

Compound `CN1CCC(Cc2cc3cccnc3[nH]2)C1` (centres undefined) returned a melting point of 96 to 97 °C.

`CC(=O)OC1CSC(Oc2cccc3c2nc(C)n3C)C(OC(C)=O)C1OC(C)=O` (centres undefined) showed a melting point of 192 °C.

In turn, `NC[C@H]1C=Cc2cc(F)cc(-c3c(Cl)cccc3Cl)c2O1` showed a melting point of 153 to 155 °C.

For the compound `COC(Cc1ccc2oc(Cc3nc(-c4ccccc4)oc3C)cc2c1)C(=O)O` (centres undefined), the melting point lay in the range of 159 to 160 °C.

`COC(=O)CN(C=O)C1c2ccccc2CCC1(C)C` (centres undefined) showed a melting point of 74 to 75 °C.

Regarding `CONS(=O)(=O)c1cccc(Cl)c1`, the melting point fell in the range of 72 to 74.5 °C.

As for `CC(=O)OC1CC2(C)C(CCC23OCCO3)C2CC=C3CC(O)CCC3(C)C12` (centres undefined), the melting point fell in the range of 125 to 126 °C.

For the compound `NS(=O)(=O)C=Cc1ccc(Cl)c(Cl)c1`, the melting point fell in the range of 127 to 130 °C.

Compound `CC(=O)n1c2ccccc2c2ccccc21` yielded a melting point of 70 to 71 °C.

`CCC/C=C/c1ccc(C#CC(C)(C)O)cc1` registered a melting point of 65 °C.

`CC(=O)C1(OC(=O)CCl)CCC2C3CCC4=CC(=O)CCC4(C)C3CCC21C` (centres undefined) returned a melting point of 134 to 135 °C.

For `COC(=O)c1cn2c3c(c(OS(C)(=O)=O)c(F)cc3c1=O)CCN2C`, the melting point lay in the range of 247 to 250 °C.

In the case of `COc1nn(-c2cccc(Nc3nccs3)c2)c(=O)n(Cc2ccc(Cl)cc2)c1=O`, the melting point lay in the range of 176 to 178 °C.

`BrCCNC(c1ccccc1)(c1ccccc1)c1ccccc1`: the melting point fell in the range of 108 to 109 °C.

With `CCCCCNc1nc(NC(C)C)c2ncn(CC(=O)O)c2n1`, the melting point lay within 173 to 176 °C.

The compound `COC(=O)[C@H](CC(C)C)NC(=O)CNC(=O)[C@H](Cc1ccc(O)cc1)NC(=O)[C@H](CO)NC(=O)OCc1ccccc1` returned a melting point of 166 to 167 °C.

Take `O=Cc1cc2ccccc2nc1I`: the melting point fell in the range of 150 to 152 °C.

As usually defined, the melting point is the temperature, or range, at which the solid turns liquid.
